Our source for the EC50 values is PMC8381602, “Non-palm Plant Volatile α-Pinene Is Detected by Antenna-Biased Expressed Odorant Receptor 6 in the Rhynchophorus ferrugineus (Olivier) (Coleoptera: Curculionidae)” (Frontiers in Physiology, 2021).

The test has as its system T1, RferOr6/RferOrco.
T1 construct: full-length ORF of RferOr6 (382 residues, 7 predicted TMDs) cloned from antennal cDNA in pT7TS; cRNA co-injected 1:1 with RferOrco in Xenopus oocytes; with Odorant receptor coreceptor
Briefly: two-electrode voltage clamp, Xenopus oocytes, dose-response. The class given is cell-based, Rhynchophorus ferrugineus. The note with it: agonist; co-expressed with RferOrco 1:1; holding potential -80 mV; Ringer's buffer pH 7.6; 20 s exposure. For orientation: Two-electrode voltage clamp holds a large cell at a set potential and records current.

What is called EC50 is the concentration that produces a half-maximal response. A higher EC50 goes with a need for much substance. Consider `CC1=CCC2CC1C2(C)C` (stereo not drawn) [α-pinene], for which the response was half-maximal at 94.5 µM (EC50).
